Where no end group is shown, it is not given here.
How the values were obtained:
[1] = FAC binding constant (Table 5 entry); conditions: Table 5: sugar chain having no fucose; at 25° C.
How it was run: (§1)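 Temperature 25° C; method FAC; lectins PhoSL/SRL/NSL/LSL, fucose α1→6 specific; panel of sugar chains as analytes.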

FAC binding constant = conditions: at 25° C.
How it was run: as §1

[2] = sugar chain having fucose other than α1→6 fucose

For “PhoSL: fucose α1→6 specific lectin that can be extracted from Pholiota squarrosa, SEQ ID No. 1 (APVPVTKLVCDGDTYKCTAYLDFGDGRWVAQWDTNVFHTG; not fully specified; ends and bridges not checked)”, the “Binding constant for sugar chain No. 728” value [1] was <1000 M⁻¹, the “Binding constant for sugar chain No. 728” value (FAC binding constant; Table 3: sugar chain having fucose other than α1→6 fucose) was <1000 M⁻¹ and the “Binding constant for sugar chain No. 419” value (FAC binding constant; [2]) was <1000 M⁻¹. The “Binding constant for sugar chain No. 420” value (FAC binding constant; [2]) was <1000 M⁻¹, the “Binding constant for sugar chain No. 718” value (FAC binding constant; [2]) was <1000 M⁻¹ and the “Binding constant for sugar chain No. 719” value (FAC binding constant; [2]) was <1000 M⁻¹. For the same substance, the “Binding constant for sugar chain No. 720” value (FAC binding constant; [2]) was <1000 M⁻¹, the “Binding constant for sugar chain No. 721” value (FAC binding constant; [2]) was <1000 M⁻¹ and the “Binding constant for sugar chain No. 722” value (FAC binding constant; [2]) was <1000 M⁻¹. The “Binding constant for sugar chain No. 723” value (FAC binding constant; [2]) was <1000 M⁻¹, the “Binding constant for sugar chain No. 726” value (FAC binding constant; [2]) was <1000 M⁻¹ and the “Binding constant for sugar chain No. 727” value (FAC binding constant; [2]) was <1000 M⁻¹. The “Binding constant for sugar chain No. 729” value (FAC binding constant; [2]) was <1000 M⁻¹, the “Binding constant for sugar chain No. 730” value (FAC binding constant; [2]) was <1000 M⁻¹ and the “Binding constant for sugar chain No. 731” value (FAC binding constant; [2]) was <1000 M⁻¹. For the same substance, the “Binding constant for sugar chain No. 739” value (FAC binding constant; [2]) was <1000 M⁻¹, the “Binding constant for sugar chain No. 909” value (FAC binding constant; [2]) was <1000 M⁻¹ and the “Binding constant for sugar chain No. 910” value (FAC binding constant; [2]) was <1000 M⁻¹. The “Binding constant for sugar chain No. 931” value (FAC binding constant; [2]) was <1000 M⁻¹, the “Binding constant for sugar chain No. 932” value (FAC binding constant; [2]) was <1000 M⁻¹ and the “Binding constant for sugar chain No. 933” value (FAC binding constant; [2]) was <1000 M⁻¹. For the same substance, the “Binding constant for sugar chain No. 001” value (FAC binding constant; sugar chain having no fucose) was <1000 M⁻¹, the “Binding constant for sugar chain No. 002” value (FAC binding constant; sugar chain having no fucose) was <1000 M⁻¹ and the “Binding constant for sugar chain No. 003” value (FAC binding constant; sugar chain having no fucose) was <1000 M⁻¹. For the same substance, the “Binding constant for sugar chain No. 004” value (FAC binding constant; sugar chain having no fucose) was <1000 M⁻¹, the “Binding constant for sugar chain No. 005” value (FAC binding constant; sugar chain having no fucose) was <1000 M⁻¹ and the “Binding constant for sugar chain No. 006” value (FAC binding constant; sugar chain having no fucose) was <1000 M⁻¹. The “Binding constant for sugar chain No. 007” value (FAC binding constant; sugar chain having no fucose) was <1000 M⁻¹, the “Binding constant for sugar chain No. 008” value (FAC binding constant; sugar chain having no fucose) was <1000 M⁻¹ and the “Binding constant for sugar chain No. 009” value (FAC binding constant; sugar chain having no fucose) was <1000 M⁻¹. For the same substance, the “Binding constant for sugar chain No. 010” value (FAC binding constant; sugar chain having no fucose) was <1000 M⁻¹, the “Binding constant for sugar chain No. 011” value (FAC binding constant; sugar chain having no fucose) was <1000 M⁻¹ and the “Binding constant for sugar chain No. 012” value (FAC binding constant; sugar chain having no fucose) was <1000 M⁻¹. For the same substance, the “Binding constant for sugar chain No. 013” value (FAC binding constant; sugar chain having no fucose) was <1000 M⁻¹, the “Binding constant for sugar chain No. 014” value (FAC binding constant; sugar chain having no fucose) was <1000 M⁻¹ and the “Binding constant for sugar chain No. 101” value (FAC binding constant; sugar chain having no fucose) was <1000 M⁻¹. The “Binding constant for sugar chain No. 103” value (FAC binding constant; sugar chain having no fucose) was <1000 M⁻¹, the “Binding constant for sugar chain No. 104” value (FAC binding constant; sugar chain having no fucose) was <1000 M⁻¹ and the “Binding constant for sugar chain No. 105” value (FAC binding constant; sugar chain having no fucose) was <1000 M⁻¹. For the same substance, the “Binding constant for sugar chain No. 107” value (FAC binding constant; sugar chain having no fucose) was <1000 M⁻¹, the “Binding constant for sugar chain No. 108” value (FAC binding constant; sugar chain having no fucose) was <1000 M⁻¹ and the “Binding constant for sugar chain No. 301” value (FAC binding constant; sugar chain having no fucose) was <1000 M⁻¹. The “Binding constant for sugar chain No. 304” value (FAC binding constant; sugar chain having no fucose) was <1000 M⁻¹, the “Binding constant for sugar chain No. 305” value (FAC binding constant; sugar chain having no fucose) was <1000 M⁻¹ and the “Binding constant for sugar chain No. 307” value (FAC binding constant; sugar chain having no fucose) was <1000 M⁻¹. The “Binding constant for sugar chain No. 308” value (FAC binding constant; sugar chain having no fucose) was <1000 M⁻¹, the “Binding constant for sugar chain No. 313” value (FAC binding constant; sugar chain having no fucose) was <1000 M⁻¹ and the “Binding constant for sugar chain No. 314” value (FAC binding constant; sugar chain having no fucose) was <1000 M⁻¹. The “Binding constant for sugar chain No. 323” value (FAC binding constant; sugar chain having no fucose) was <1000 M⁻¹, the “Binding constant for sugar chain No. 501” value (FAC binding constant; sugar chain having no fucose) was <1000 M⁻¹ and the “Binding constant for sugar chain No. 502” value (FAC binding constant; sugar chain having no fucose) was <1000 M⁻¹. For the same substance, the “Binding constant for sugar chain No. 503” value (FAC binding constant; sugar chain having no fucose) was <1000 M⁻¹, the “Binding constant for sugar chain No. 504” value (FAC binding constant; sugar chain having no fucose) was <1000 M⁻¹ and the “Binding constant for sugar chain No. 701” value (FAC binding constant; sugar chain having no fucose) was <1000 M⁻¹. The “Binding constant for sugar chain No. 702” value (FAC binding constant; sugar chain having no fucose) was <1000 M⁻¹, the “Binding constant for sugar chain No. 703” value (FAC binding constant; sugar chain having no fucose) was <1000 M⁻¹ and the “Binding constant for sugar chain No. 704” value (FAC binding constant; sugar chain having no fucose) was <1000 M⁻¹. The “Binding constant for sugar chain No. 705” value (FAC binding constant; sugar chain having no fucose) was <1000 M⁻¹, the “Binding constant for sugar chain No. 706” value (FAC binding constant; sugar chain having no fucose) was <1000 M⁻¹ and the “Binding constant for sugar chain No. 707” value (FAC binding constant; sugar chain having no fucose) was <1000 M⁻¹. For the same substance, the “Binding constant for sugar chain No. 708” value (FAC binding constant; sugar chain having no fucose) was <1000 M⁻¹, the “Binding constant for sugar chain No. 709” value (FAC binding constant; sugar chain having no fucose) was <1000 M⁻¹ and the “Binding constant for sugar chain No. 710” value (FAC binding constant; sugar chain having no fucose) was <1000 M⁻¹. The “Binding constant for sugar chain No. 711” value (FAC binding constant; sugar chain having no fucose) was <1000 M⁻¹, the “Binding constant for sugar chain No. 712” value (FAC binding constant; sugar chain having no fucose) was <1000 M⁻¹ and the “Binding constant for sugar chain No. 713” value (FAC binding constant; sugar chain having no fucose) was <1000 M⁻¹. For the same substance, the “Binding constant for sugar chain No. 715” value (FAC binding constant; sugar chain having no fucose) was <1000 M⁻¹, the “Binding constant for sugar chain No. 716” value (FAC binding constant; sugar chain having no fucose) was <1000 M⁻¹ and the “Binding constant for sugar chain No. 717” value (FAC binding constant; sugar chain having no fucose) was <1000 M⁻¹. For the same substance, the “Binding constant for sugar chain No. 724” value (FAC binding constant; sugar chain having no fucose) was <1000 M⁻¹, the “Binding constant for sugar chain No. 725” value (FAC binding constant; sugar chain having no fucose) was <1000 M⁻¹ and the “Binding constant for sugar chain No. 732” value (FAC binding constant; sugar chain having no fucose) was <1000 M⁻¹. For the same substance, the “Binding constant for sugar chain No. 733” value (FAC binding constant; sugar chain having no fucose) was <1000 M⁻¹, the “Binding constant for sugar chain No. 734” value (FAC binding constant; sugar chain having no fucose) was <1000 M⁻¹ and the “Binding constant for sugar chain No. 735” value (FAC binding constant; sugar chain having no fucose) was <1000 M⁻¹. For the same substance, the “Binding constant for sugar chain No. 736” value (FAC binding constant; sugar chain having no fucose) was <1000 M⁻¹, the “Binding constant for sugar chain No. 737” value (FAC binding constant; sugar chain having no fucose) was <1000 M⁻¹ and the “Binding constant for sugar chain No. 738” value (FAC binding constant; sugar chain having no fucose) was <1000 M⁻¹. The “Binding constant for sugar chain No. 901” value (FAC binding constant; sugar chain having no fucose) was <1000 M⁻¹, the “Binding constant for sugar chain No. 902” value (FAC binding constant; sugar chain having no fucose) was <1000 M⁻¹ and the “Binding constant for sugar chain No. 903” value (FAC binding constant; sugar chain having no fucose) was <1000 M⁻¹. The “Binding constant for sugar chain No. 905” value (FAC binding constant; sugar chain having no fucose) was <1000 M⁻¹, the “Binding constant for sugar chain No. 906” value (FAC binding constant; sugar chain having no fucose) was <1000 M⁻¹ and the “Binding constant for sugar chain No. 907” value (FAC binding constant; sugar chain having no fucose) was <1000 M⁻¹. The “Binding constant for sugar chain No. 015” value (FAC binding constant; sugar chain having α1→6 fucose) was 500000 M⁻¹, the “Binding constant for sugar chain No. 201” value (FAC binding constant; sugar chain having α1→6 fucose) was 460000 M⁻¹ and the “Binding constant for sugar chain No. 202” value (FAC binding constant; sugar chain having α1→6 fucose) was 400000 M⁻¹. The “Binding constant for sugar chain No. 203” value (FAC binding constant; sugar chain having α1→6 fucose) was 330000 M⁻¹, the “Binding constant for sugar chain No. 401” value (FAC binding constant; sugar chain having α1→6 fucose) was 350000 M⁻¹ and the “Binding constant for sugar chain No. 402” value (FAC binding constant; sugar chain having α1→6 fucose) was 200000 M⁻¹. The “Binding constant for sugar chain No. 403” value (FAC binding constant; sugar chain having α1→6 fucose) was 340000 M⁻¹, the “Binding constant for sugar chain No. 404” value (FAC binding constant; sugar chain having α1→6 fucose) was 390000 M⁻¹ and the “Binding constant for sugar chain No. 405” value (FAC binding constant; sugar chain having α1→6 fucose) was 320000 M⁻¹. For the same substance, the “Binding constant for sugar chain No. 406” value (FAC binding constant; sugar chain having α1→6 fucose) was 220000 M⁻¹, the “Binding constant for sugar chain No. 407” value (FAC binding constant; sugar chain having α1→6 fucose) was 280000 M⁻¹ and the “Binding constant for sugar chain No. 410” value (FAC binding constant; sugar chain having α1→6 fucose) was 220000 M⁻¹. For the same substance, the “Binding constant for sugar chain No. 413” value (FAC binding constant; sugar chain having α1→6 fucose) was 280000 M⁻¹, the “Binding constant for sugar chain No. 418” value (FAC binding constant; sugar chain having α1→6 fucose) was 220000 M⁻¹ and the “Binding constant for sugar chain No. 601” value (FAC binding constant; sugar chain having α1→6 fucose) was 240000 M⁻¹. For the same substance, the “Binding constant for sugar chain No. 602” value (FAC binding constant; sugar chain having α1→6 fucose) was 120000 M⁻¹.

Source: patent US20200264182A1, “METHOD FOR DETECTING PROSTATE CANCER” (J-OIL MILLS, INC., priority 2017, published 2020)
